Laboratory results from BigSolDB 2.1.

Nc1nnn[nH]1
solubility (mole fraction)
Details	283.15 K	288.15 K	293.15 K	298.15 K	303.15 K	308.15 K	313.15 K	318.15 K	323.15 K
in 1,4-dioxane	–	0.0178	0.0217	0.0267	0.0328	0.0393	0.0463	0.0551	0.0652
in DMF	0.0284	0.0326	0.038	0.0437	0.0493	0.0559	0.0628	0.0707	0.0795
in NMP	0.0223	0.0265	0.0312	0.0366	0.0432	0.0502	0.0577	0.0657	0.0741
in acetone	0.000749	0.000832	0.000916	0.00102	0.00112	0.00123	0.00135	0.00149	0.00162
in acetonitrile	0.000193	0.000213	0.000235	0.000256	0.00028	0.000304	0.000329	0.000357	0.000385
in ethanol	0.0008	0.000896	0.00099	0.00109	0.00121	0.00133	0.00145	0.0016	0.00175
in ethyl acetate	0.000499	0.000572	0.000649	0.000734	0.000834	0.000943	0.00107	0.00122	0.00139
in isopropanol	0.000762	0.000853	0.000946	0.00105	0.00116	0.00128	0.00141	0.00154	0.00169
in methanol	0.000615	0.000681	0.000764	0.000858	0.000954	0.00106	0.00118	0.00131	0.00147
in n-butanol	0.000455	0.00051	0.000577	0.00066	0.000755	0.000869	0.001	0.00115	0.00131
in n-propanol	0.000694	0.000773	0.000868	0.000962	0.00106	0.00117	0.00129	0.00142	0.00157
in toluene	0.00135	0.00156	0.00177	0.00201	0.00229	0.0026	0.00295	0.00335	0.00381
